Assay results from ChEMBL document CHEMBL1201862, “PubChem BioAssay data set” (2004).
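Grown in 96-well plates, cells were treated for 48 hours with each compound at five concentrations. Insufficient inhibition: endpoint recorded as highest concentration tested. Abbreviation: GI50, concentration required for 50% inhibition of growth.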 Activity calls are given as the source filed them. Rule as the data show it: active = GI50 up to about 1.1 µM and inactive = higher. Residues, ends and D or L forms follow the SMILES beside them. *: point of attachment. Boc = CC(C)(C)OC(=O)*; Bz = O=C(c1ccccc1)*

Assays:
Experiment in all cases: NCI tumour cell line growth inhibition, 48 h
[1] = tested on: HCT-15
[2] = tested on: TK-10
[3] = tested on: HCC 2998
[4] = tested on: UACC-257
[5] = tested on: SF-268
[6] = tested on: NCI-H226
[7] = tested on: SK-OV-3
[8] = tested on: HCT-116
[9] = tested on: MDA-MB-435
[10] = tested on: U-251
[11] = tested on: NCI/ADR-RES
[12] = tested on: A549
[13] = tested on: HT-29
[14] = tested on: NCI-H23
[15] = tested on: UACC-62
[16] = tested on: RPMI-8226
[17] = tested on: T47D
[18] = tested on: NCI-H460
[19] = tested on: IGROV-1
[20] = tested on: PC-3

Compound | GI50 [1] | GI50 [2] | GI50 [3] | GI50 [4] | GI50 [5] | GI50 [6] | GI50 [7] | GI50 [8] | GI50 [9] | GI50 [10] | GI50 [11] | GI50 [12] | GI50 [13] | GI50 [14] | GI50 [15] | GI50 [16] | GI50 [17] | GI50 [18] | GI50 [19] | GI50 [20]
O=C1c2ccccc2C(=O)c2c1oc1cc(O)c(Cl)cc21 | 4.66 µM | 20.9 µM (inactive) | 4.62 µM (inactive) | 2.33 µM (inactive) | 10.8 µM (inactive) | 14 µM (inactive) | 17.2 µM (inactive) | 5.27 µM (inactive) | 1.81 µM (inactive) | 5.36 µM (inactive) | 12.7 µM (inactive) | 3.01 µM (inactive) | 1.95 µM (inactive) | 0.519 µM (active) | 1.93 µM (inactive) | 4.54 µM (inactive) | 16.5 µM (inactive) | 3.04 µM (inactive) | 10.1 µM (inactive) | 10.4 µM (inactive)
NCCC1CN(C(=O)OCc2ccccc2)c2ccccc21 (stereo not given) | 1.78 µM | 22.6 µM (inactive) | 16.6 µM (inactive) | 17.3 µM (inactive) | 17.1 µM (inactive) | 12 µM (inactive) | > 42.4 µM (inactive) | 3.59 µM (inactive) | 14.8 µM (inactive) | 14.3 µM (inactive) | 15.1 µM (inactive) | 27.5 µM (inactive) | 12.5 µM (inactive) | 15 µM (inactive) | 15.6 µM (inactive) | 12.8 µM (inactive) | 3.13 µM (inactive) | 17.7 µM (inactive) | 9.48 µM (inactive) | 3.86 µM (inactive)
CCC[N+](C)(C)CCCNC(=O)c1c(O)c2ccccc2[nH]c1=O | > 100 µM | > 100 µM (inactive) | > 100 µM (inactive) | > 100 µM (inactive) | > 100 µM (inactive) | 77.1 µM (inactive) | > 100 µM (inactive) | > 100 µM (inactive) | > 100 µM (inactive) | > 100 µM (inactive) | > 100 µM (inactive) | 46.3 µM (inactive) | > 100 µM (inactive) | > 100 µM (inactive) | > 100 µM (inactive) | > 100 µM (inactive) | > 100 µM (inactive) | > 100 µM (inactive) | 89.1 µM (inactive) | > 100 µM (inactive)
Oc1c(O)c(Cc2ccccc2)c(Cc2ccccc2)c(Cc2ccccc2)c1Cc1ccccc1 | > 10 µM | > 10 µM (inactive) | > 10 µM (inactive) | > 10 µM (inactive) | > 10 µM (inactive) | > 10 µM (inactive) | > 10 µM (inactive) | > 10 µM (inactive) | > 10 µM (inactive) | > 10 µM (inactive) | > 10 µM (inactive) | > 10 µM (inactive) | > 10 µM (inactive) | > 10 µM (inactive) | > 10 µM (inactive) | > 10 µM (inactive) | > 10 µM (inactive) | > 10 µM (inactive) | > 10 µM (inactive) | > 10 µM (inactive)
Cc1ccc(NC(=O)CC(=O)n2nc(C)c(/N=N/c3cccc(C)c3)c2C)cc1 | > 100 µM | > 100 µM (inactive) | > 100 µM (inactive) | > 100 µM (inactive) | 69 µM (inactive) | > 100 µM (inactive) | > 100 µM (inactive) | > 100 µM (inactive) | > 100 µM (inactive) | > 100 µM (inactive) | > 100 µM (inactive) | > 100 µM (inactive) | > 100 µM (inactive) | > 100 µM (inactive) | > 100 µM (inactive) | > 100 µM (inactive) | > 100 µM (inactive) | > 100 µM (inactive) | > 100 µM (inactive) | > 100 µM (inactive)
CNC(=O)/C=C/C1=CN2C(=O)c3ccc(C)c(O)c3NC(OC)C2C1 (stereo not given) | < 0.0131 µM | 0.0142 µM (active) | < 0.0126 µM (active) | < 0.013 µM (active) | < 0.0154 µM (active) | 0.0141 µM (active) | < 0.0206 µM (active) | < 0.0148 µM (active) | < 0.0133 µM (active) | < 0.0161 µM (active) | < 0.01 µM (active) | < 0.0149 µM (active) | < 0.0143 µM (active) | < 0.0134 µM (active) | < 0.0124 µM (active) | 0.0234 µM (active) | < 0.0181 µM (active) | 0.0135 µM (active) | 0.016 µM (active) | < 0.016 µM (active)
O=C(O)/C=C/C(=O)N1Cc2cc3ccccc3nc2C1 | > 100 µM | > 100 µM (inactive) | > 100 µM (inactive) | > 100 µM (inactive) | > 100 µM (inactive) | > 100 µM (inactive) | > 100 µM (inactive) | > 100 µM (inactive) | > 100 µM (inactive) | > 100 µM (inactive) | > 100 µM (inactive) | > 100 µM (inactive) | > 100 µM (inactive) | > 100 µM (inactive) | > 100 µM (inactive) | > 100 µM (inactive) | > 100 µM (inactive) | > 100 µM (inactive) | > 100 µM (inactive) | > 100 µM (inactive)
Cc1c2c(OCC(O)CN3CCN(c4ccccc4)CC3)nn(C)c(=O)c2c(C)n1-c1ccccc1 (stereo not given) | 20.3 µM | 47.5 µM (inactive) | 29.7 µM (inactive) | 28 µM (inactive) | 26.2 µM (inactive) | 23.2 µM (inactive) | 43 µM (inactive) | 17.5 µM (inactive) | 29.4 µM (inactive) | 16.6 µM (inactive) | 24.6 µM (inactive) | 24.7 µM (inactive) | 22.7 µM (inactive) | 20.5 µM (inactive) | 17.1 µM (inactive) | 21.6 µM (inactive) | 27.5 µM (inactive) | 25 µM (inactive) | 35.2 µM (inactive) | 22 µM (inactive)
COC1CC(C)(N)C(O)C(C)O1 (stereo not given) | > 100 µM | > 100 µM (inactive) | > 100 µM (inactive) | > 100 µM (inactive) | > 100 µM (inactive) | > 100 µM (inactive) | > 100 µM (inactive) | > 100 µM (inactive) | > 100 µM (inactive) | > 100 µM (inactive) | > 100 µM (inactive) | > 100 µM (inactive) | > 100 µM (inactive) | > 100 µM (inactive) | > 100 µM (inactive) | > 100 µM (inactive) | > 100 µM (inactive) | > 100 µM (inactive) | > 100 µM (inactive) | > 100 µM (inactive)
CC(NC(=O)C(Cc1ccc(OC(=O)c2ccccc2)cc1)NC(=O)OC(C)(C)C)C(=O)NC(Cc1ccccc1)C(=O)NCC(N)=O (stereo not given) (Boc-Y(Bz)AFG-NH2; configuration not given here) | 53 µM | 20.8 µM (inactive) | 20.2 µM (inactive) | 19.1 µM (inactive) | 19.6 µM (inactive) | 20.9 µM (inactive) | 19.2 µM (inactive) | 27.5 µM (inactive) | 21.7 µM (inactive) | 17.8 µM (inactive) | > 100 µM (inactive) | 23.4 µM (inactive) | 19.1 µM (inactive) | 23.2 µM (inactive) | 18.8 µM (inactive) | 24 µM (inactive) | 20.9 µM (inactive) | 18.3 µM (inactive) | 20.4 µM (inactive) | 18 µM (inactive)
